Results from US11167059B2, “Compositions with reactive ingredients, and wound dressings, apparatuses, and methods” (KCI Licensing, Inc., priority 2010, dated 2021).

Assays:
Assay type in all cases: cell-based
MRSA = assay: Log reduction, single cycle, MRSA; conditions: for ΔLog - MRSA 30 sec.: 30 sec. exposure; for ΔLog - MRSA 5 min.: 5 min. exposure
Protocol: (§1) Referring now to FIG. 17, the experiments described above for FIG. 14 were also performed with additional foams, one foam in which 1 gram of Calcium hypochlorite salt was infused (D100, shown as left column for each cycle), and one foam in which 2 grams of Calcium hypochlorite salt was dispersed (D200, shown as right column for each cycle). […] As discussed additionally below, the minimum concentration is significant because testing identified concentrations of hypochlorite-ion as low as 0.5-0.7 mM to have effective antibacterial and antimicrobial properties. Additional testing was performed to measure the zone of inhibition (ZOI) and Log Reduction of microbes for various samples of released aqueous solutions having various concentrations of hypochlorite ion, as listed in Tables 2 and 3. Table 2 lists ZOI and Log reduction data for a single cycle measured at hold times (exposure duration) of 30 seconds and 5 minutes of bacterial exposure to solution. Table 3 lists ZOI and Log reduction data for multiple cycles (each cycle including introduction of hypochlorite solution, and removal of solution prior to beginning next cycle). In the ZOI experimentation, foam discs having a diameter of 8 millimeters (mm) and a height of 5 mm were each saturated with hypochlorite-ion solution as indicated. Table 3 also lists the initial microbe count in log form (10^X, where X is listed in Table 2), log reduction in microbe count, and ZOI in mm. For the data of Table 3, the initial concentration (1×) of hypochlorite ion in solution was 5.7 mM of hypochlorite ion, which corresponds to 0.041% w/v of Ca(OCl)^2. In the Log reduction experimentation, the microbes were exposed to the respective concentration of solution for 30 seconds per cycle. […] The bold entries in Table 3 are indicative of substantially all microbes being killed. In the biofilm eradication cycles listed in Table 6 below, probes were cultured with microbes and incubated to permit formation of a biofilm on the probe. The probe was then exposed to solutions having various concentrations of Calcium hypochlorite solution for multiple cycles, with each cycle including exposure of the probe to solution for a duration of 5 minutes.

[1] = test system: Pseudomonas aeruginosa ATCC 27853; assay: Minimum Bactericidal Concentration (MBC), P. aeruginosa; conditions: % w/v Ca(OCl)2 in water
Protocol: as §1, with “The probe was then exposed to solutions having various concentrations of Calcium hypochlorite solution for multiple cycles, with each cycle including exposure of the probe to solution for a duration of 5 minutes.” left out

[2] = test system: Staphylococcus aureus ATCC 10832; assay: Minimum Bactericidal Concentration (MBC), S. aureus ATCC 10832; conditions: % w/v Ca(OCl)2 in water
Protocol: as §1, with “The probe was then exposed to solutions having various concentrations of Calcium hypochlorite solution for multiple cycles, with each cycle including exposure of the probe to solution for a duration of 5 minutes.” left out

[3] = test system: Staphylococcus aureus ATCC 10832; assay: Minimum Biofilm Eradication Concentration (MBEC), S. aureus ATCC 10832; conditions: Staphylococcus aureus ATCC 10832 biofilm on probe, 5 minutes per cycle, % w/v Ca(OCl)2
Protocol: as §1, with “The probe was then exposed to solutions having various concentrations of Calcium hypochlorite solution for multiple cycles, with each cycle including exposure of the probe to solution for a duration of 5 minutes.” left out

microbes = assay: antibacterial and antimicrobial testing of hypochlorite-ion concentrations (summary statements)
Protocol: Referring now to FIG. 17, the experiments described above for FIG. 14 were also performed with additional foams, one foam in which 1 gram of Calcium hypochlorite salt was infused (D100, shown as left column for each cycle), and one foam in which 2 grams of Calcium hypochlorite salt was dispersed (D200, shown as right column for each cycle). […] As discussed additionally below, the minimum concentration is significant because testing identified concentrations of hypochlorite-ion as low as 0.5-0.7 mM to have effective antibacterial and antimicrobial properties. Additional testing was performed to measure the zone of inhibition (ZOI) and Log Reduction of microbes for various samples of released aqueous solutions having various concentrations of hypochlorite ion, as listed in Tables 2 and 3. Table 2 lists ZOI and Log reduction data for a single cycle measured at hold times (exposure duration) of 30 seconds and 5 minutes of bacterial exposure to solution. Table 3 lists ZOI and Log reduction data for multiple cycles (each cycle including introduction of hypochlorite solution, and removal of solution prior to beginning next cycle). In the ZOI experimentation, foam discs having a diameter of 8 millimeters (mm) and a height of 5 mm were each saturated with hypochlorite-ion solution as indicated. […]

Substance: hypochlorite ion [OCl^− Solutions]
- ΔLog - MRSA 30 sec. (MRSA; 0.8 mM HOCl/OCl−): 2.96
- ΔLog - MRSA 5 min. (MRSA; 0.8 mM HOCl/OCl−): 2.99
- ΔLog - MRSA 30 sec. (MRSA; 1.9 mM HOCl/OCl−): 2.93
- ΔLog - MRSA 5 min. (MRSA; 1.9 mM HOCl/OCl−): 4.09
- ΔLog - MRSA 30 sec. (MRSA; 3.1 mM HOCl/OCl−): 3.55
- ΔLog - MRSA 5 min. (MRSA; 3.1 mM HOCl/OCl−): >7.13
- ΔLog - MRSA 30 sec. (MRSA; 4.0 mM HOCl/OCl−): 5.52
- ΔLog - MRSA 5 min. (MRSA; 4.0 mM HOCl/OCl−): >7.13
- ΔLog - MRSA 30 sec. (MRSA; 10.7 mM HOCl/OCl−): >6.93
- ΔLog - MRSA 5 min. (MRSA; 10.7 mM HOCl/OCl−): >7.13
- ΔLog - MRSA 30 sec. (MRSA; 15.7 mM HOCl/OCl−): >6.93
- ΔLog - MRSA 5 min. (MRSA; 15.7 mM HOCl/OCl−): >7.13
- Minimum Bactericidal Concentration (MBC) 1 Cycle ([1]; 1 Cycle): <0.005% w/v
- Minimum Bactericidal Concentration (MBC) 3 Cycles ([1]; 3 Cycles): <0.005% w/v
- Minimum Bactericidal Concentration (MBC) 5 Cycles ([1]; 5 Cycles): <0.005% w/v
- Minimum Bactericidal Concentration (MBC) 1 Cycle ([2]; 1 Cycle): <0.005% w/v
- Minimum Bactericidal Concentration (MBC) 3 Cycles ([2]; 3 Cycles): <0.005% w/v
- Minimum Bactericidal Concentration (MBC) 5 Cycles ([2]; 5 Cycles): <0.005% w/v
- Minimum Biofilm Eradication Concentration (MBEC) 1 Cycle ([3]; 1 Cycle): <0.005% w/v
- Minimum Biofilm Eradication Concentration (MBEC) 3 Cycles ([3]; 3 Cycles): <0.005% w/v
- Minimum Biofilm Eradication Concentration (MBEC) 5 Cycles ([3]; 5 Cycles): <0.005% w/v
- lowest concentrations identified to have effective antibacterial and antimicrobial properties (microbes): 0.5 to 0.7 mM
- killing of microbes in Log reduction experimentation (microbes; five (5) cycles at the lowest concentration (0.7 mM), 30 seconds per cycle): killed substantially all microbes present
